Data reported in patent US8273880B2, “Pyrazole compounds with inhibitory activity against ROS kinase” (Korea Institute of Science and Technology, priority 2009, dated 2012).

Columns and labels:
Format in all cases: biochemical
c-Src = target: T1, c-Src (Homo sapiens, UniProt P12931); test: HotSpot kinase screening over 45 different kinases, single dose 10 μM; details: single dose concentration of 10 μM, 10 μM ATP, compared to enzyme activity in DMSO control
T1 construct: purchased Reaction Biology Corporation
Method: (§1) Kinase screening was performed using a “HotSpot” assay platform commercially available from Reaction Biology Corporation. For this kinase screening, reaction buffers were based on 20 mM Hepes (pH 7.5), 10 mM MgCl2, 1 mM EGTA, 0.02% Brij35, 0.02 mg/mL BSA, 0.1 mM Na3VO4, 2 mM DTT, and 1% DMSO, with supplementary factors necessary for respective kinase reactions added thereto. In each enzyme reaction, […] of each kinase was used together with a fresh reaction buffer and appropriate supplementary factors. A solution of each compound in DMSO was added in a suitable concentration to the reaction buffer. Kinase reaction started with the introduction of […] (specific activity […]) and continued for 2 hours at room temperature.
(§2) 1) Screening of Compounds Over 45 Different Kinases
(§3) Each compound was tested twice at a single dose concentration of 10 μM. […] The reaction was performed with 10 μM ATP.

FGR = target: T2, FGR (Homo sapiens, UniProt P09769); test: as above; details: single dose concentration of 10 μM, 10 μM ATP
T2 construct: purchased Reaction Biology Corporation
Method: as §1, §2, §3

Aurora A = target: T3, Aurora A (Homo sapiens, UniProt O14965); test: as above; details: single dose concentration of 10 μM, 10 μM ATP
T3 construct: purchased Reaction Biology Corporation
Method: as §1, §2, §3

PLK1 = target: T4, PLK1 (Homo sapiens, UniProt P53350); test: as above; details: single dose concentration of 10 μM, 10 μM ATP
T4 construct: purchased Reaction Biology Corporation
Method: as §1, §2, §3

FGFR1 = target: T5, FGFR1 (Homo sapiens, UniProt P11362); test: as above; details: single dose concentration of 10 μM, 10 μM ATP
T5 construct: purchased Reaction Biology Corporation
Method: as §1, §2, §3

PIM1 = target: T6, PIM1 (Homo sapiens, UniProt P11309); test: as above; details: single dose concentration of 10 μM, 10 μM ATP
T6 construct: purchased Reaction Biology Corporation
Method: as §1, §2, §3

CHK1 = target: T7, CHK1 (Homo sapiens, UniProt O14757); test: as above; details: single dose concentration of 10 μM, 10 μM ATP
T7 construct: purchased Reaction Biology Corporation
Method: as §1, §2, §3

Ros/Ros1 = target: T8, Ros/Ros1 (Homo sapiens, UniProt P08922); test: as above; details: single dose concentration of 10 μM, 10 μM ATP
T8 construct: purchased Reaction Biology Corporation
Method: as §1, §2, §3

P38a/MAPK14 = target: T9, P38a/MAPK14 (Homo sapiens, UniProt Q16539); test: as above; details: single dose concentration of 10 μM, 10 μM ATP
T9 construct: purchased Reaction Biology Corporation
Method: as §1, §2, §3

TRKA/NTRK1 = target: T10, TRKA/NTRK1 (Homo sapiens, UniProt P04629); test: as above; details: single dose concentration of 10 μM, 10 μM ATP
T10 construct: purchased Reaction Biology Corporation
Method: as §1, §2, §3

RocK1 = target: T11, RocK1 (Homo sapiens, UniProt Q13464); test: as above; details: single dose concentration of 10 μM, 10 μM ATP
T11 construct: purchased Reaction Biology Corporation
Method: as §1, §2, §3

KDR/VEGFR2 = target: T12, KDR/VEGFR2 (Homo sapiens, UniProt P35968); test: as above; details: single dose concentration of 10 μM, 10 μM ATP
T12 construct: purchased Reaction Biology Corporation
Method: as §1, §2, §3

IR = target: T13, IR (Homo sapiens, UniProt P06213); test: as above; details: single dose concentration of 10 μM, 10 μM ATP
T13 construct: purchased Reaction Biology Corporation
Method: as §1, §2, §3

EPHA1 = target: T14, EPHA1 (Homo sapiens, UniProt P21709); test: as above; details: single dose concentration of 10 μM, 10 μM ATP
T14 construct: purchased Reaction Biology Corporation
Method: as §1, §2, §3

EGFR = target: T15, EGFR (Homo sapiens, UniProt P00533); test: as above; details: single dose concentration of 10 μM, 10 μM ATP
T15 construct: purchased Reaction Biology Corporation
Method: as §1, §2, §3

CK1epsilon = target: T16, CK1epsilon (Homo sapiens, UniProt P49674); test: as above; details: single dose concentration of 10 μM, 10 μM ATP
T16 construct: purchased Reaction Biology Corporation
Method: as §1, §2, §3

FAK/PTK2 = target: T17, FAK/PTK2 (Homo sapiens, UniProt Q05397); test: as above; details: single dose concentration of 10 μM, 10 μM ATP
T17 construct: purchased Reaction Biology Corporation
Method: as §1, §2, §3

MUSK = target: T18, MUSK (Homo sapiens, UniProt O15146); test: as above; details: single dose concentration of 10 μM, 10 μM ATP
T18 construct: purchased Reaction Biology Corporation
Method: as §1, §2, §3

DNA-PK = target: T19, DNA-PK (Homo sapiens, UniProt P78527); test: as above; details: single dose concentration of 10 μM, 10 μM ATP
T19 construct: purchased Reaction Biology Corporation
Method: as §1, §2, §3

TIE2/TEK = target: T20, TIE2/TEK (Homo sapiens, UniProt Q02763); test: as above; details: single dose concentration of 10 μM, 10 μM ATP
T20 construct: purchased Reaction Biology Corporation
Method: as §1, §2, §3

PKCa = target: T21, PKCa (Homo sapiens, UniProt P17252); test: as above; details: single dose concentration of 10 μM, 10 μM ATP
T21 construct: purchased Reaction Biology Corporation
Method: as §1, §2, §3

p70S6K = target: T22, p70S6K (Homo sapiens, UniProt P23443); test: as above; details: single dose concentration of 10 μM, 10 μM ATP
T22 construct: purchased Reaction Biology Corporation
Method: as §1, §2, §3

CDK1/cyclinB = target: T23, CDK1/cyclinB (Homo sapiens, UniProt P06493); test: as above; details: single dose concentration of 10 μM, 10 μM ATP
T23 construct: purchased Reaction Biology Corporation
Method: as §1, §2, §3

ROS kinase = ROS kinase (Homo sapiens, UniProt P08922); test: ROS kinase screening (HotSpot, IC50 mode); design: purchased Reaction Biology Corporation; details: 10-dose IC50 mode starting from 20 μM; 10 μM ATP; read-out: Inhibitory Activity against ROS (IC50)
Method: as §1
The reaction was performed with 10 μM ATP.

[1] = compared to enzyme activity in DMSO control

T17 sequence (Q05397 whole entry): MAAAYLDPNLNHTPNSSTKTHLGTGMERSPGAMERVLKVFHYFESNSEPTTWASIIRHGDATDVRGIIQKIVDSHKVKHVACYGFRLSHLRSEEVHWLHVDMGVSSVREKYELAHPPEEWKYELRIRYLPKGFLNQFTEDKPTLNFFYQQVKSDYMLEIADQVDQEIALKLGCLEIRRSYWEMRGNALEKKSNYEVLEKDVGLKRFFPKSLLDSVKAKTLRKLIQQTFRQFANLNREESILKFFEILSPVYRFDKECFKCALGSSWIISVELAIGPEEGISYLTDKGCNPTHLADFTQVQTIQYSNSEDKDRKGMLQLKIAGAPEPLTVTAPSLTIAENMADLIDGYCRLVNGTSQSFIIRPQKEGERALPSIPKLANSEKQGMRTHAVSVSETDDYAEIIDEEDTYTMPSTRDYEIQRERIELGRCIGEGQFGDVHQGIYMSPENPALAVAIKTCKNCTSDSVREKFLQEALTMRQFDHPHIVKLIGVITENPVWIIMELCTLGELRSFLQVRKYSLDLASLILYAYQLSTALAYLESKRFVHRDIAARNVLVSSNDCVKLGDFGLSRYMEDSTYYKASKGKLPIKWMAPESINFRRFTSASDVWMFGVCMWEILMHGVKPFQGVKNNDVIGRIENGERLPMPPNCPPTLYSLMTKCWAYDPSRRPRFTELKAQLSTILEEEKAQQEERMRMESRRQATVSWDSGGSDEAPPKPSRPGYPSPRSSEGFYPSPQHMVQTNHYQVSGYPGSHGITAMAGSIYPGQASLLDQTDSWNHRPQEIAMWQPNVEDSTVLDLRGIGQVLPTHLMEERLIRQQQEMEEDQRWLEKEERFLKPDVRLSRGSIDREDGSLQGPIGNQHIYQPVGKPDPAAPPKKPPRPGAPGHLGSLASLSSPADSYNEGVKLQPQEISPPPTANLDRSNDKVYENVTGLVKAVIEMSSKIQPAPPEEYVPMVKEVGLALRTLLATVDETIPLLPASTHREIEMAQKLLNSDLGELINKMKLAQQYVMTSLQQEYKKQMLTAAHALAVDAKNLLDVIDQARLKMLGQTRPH
T2 sequence (P09769 whole entry): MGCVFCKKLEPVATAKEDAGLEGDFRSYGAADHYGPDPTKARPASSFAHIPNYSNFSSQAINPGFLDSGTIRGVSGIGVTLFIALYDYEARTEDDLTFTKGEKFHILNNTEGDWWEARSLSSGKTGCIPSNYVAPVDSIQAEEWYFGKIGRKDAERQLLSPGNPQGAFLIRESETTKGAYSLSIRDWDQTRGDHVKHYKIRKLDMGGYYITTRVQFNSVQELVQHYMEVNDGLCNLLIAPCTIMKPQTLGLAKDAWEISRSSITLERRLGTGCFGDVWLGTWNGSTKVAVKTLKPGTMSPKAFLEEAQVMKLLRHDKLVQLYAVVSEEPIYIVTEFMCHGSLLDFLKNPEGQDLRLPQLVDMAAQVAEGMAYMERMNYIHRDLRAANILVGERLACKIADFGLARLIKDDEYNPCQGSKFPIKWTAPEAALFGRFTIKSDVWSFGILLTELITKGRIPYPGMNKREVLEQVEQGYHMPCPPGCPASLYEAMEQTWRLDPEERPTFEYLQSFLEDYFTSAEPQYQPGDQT
T23 sequence (P06493 whole entry): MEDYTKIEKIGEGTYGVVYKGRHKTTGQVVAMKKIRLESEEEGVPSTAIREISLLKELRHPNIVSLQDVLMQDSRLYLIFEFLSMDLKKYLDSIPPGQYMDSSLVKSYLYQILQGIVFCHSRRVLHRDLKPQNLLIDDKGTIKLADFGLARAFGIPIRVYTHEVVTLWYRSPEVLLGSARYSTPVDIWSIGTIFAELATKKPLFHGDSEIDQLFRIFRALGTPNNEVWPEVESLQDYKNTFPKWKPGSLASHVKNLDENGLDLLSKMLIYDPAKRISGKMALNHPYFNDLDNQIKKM
T23 sequence (P14635 whole entry partner): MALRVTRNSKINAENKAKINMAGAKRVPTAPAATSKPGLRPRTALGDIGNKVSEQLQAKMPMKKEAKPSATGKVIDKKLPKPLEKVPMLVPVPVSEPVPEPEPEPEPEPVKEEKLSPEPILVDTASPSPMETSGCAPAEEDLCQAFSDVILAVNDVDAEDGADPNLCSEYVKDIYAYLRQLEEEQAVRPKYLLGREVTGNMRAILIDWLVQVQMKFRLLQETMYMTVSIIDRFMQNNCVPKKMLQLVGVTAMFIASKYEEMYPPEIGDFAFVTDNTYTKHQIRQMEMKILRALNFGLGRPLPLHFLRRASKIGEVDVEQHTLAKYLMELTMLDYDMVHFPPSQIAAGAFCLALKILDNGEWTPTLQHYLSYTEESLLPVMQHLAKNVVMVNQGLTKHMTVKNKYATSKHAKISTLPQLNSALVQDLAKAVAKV
T11 sequence (Q13464 whole entry): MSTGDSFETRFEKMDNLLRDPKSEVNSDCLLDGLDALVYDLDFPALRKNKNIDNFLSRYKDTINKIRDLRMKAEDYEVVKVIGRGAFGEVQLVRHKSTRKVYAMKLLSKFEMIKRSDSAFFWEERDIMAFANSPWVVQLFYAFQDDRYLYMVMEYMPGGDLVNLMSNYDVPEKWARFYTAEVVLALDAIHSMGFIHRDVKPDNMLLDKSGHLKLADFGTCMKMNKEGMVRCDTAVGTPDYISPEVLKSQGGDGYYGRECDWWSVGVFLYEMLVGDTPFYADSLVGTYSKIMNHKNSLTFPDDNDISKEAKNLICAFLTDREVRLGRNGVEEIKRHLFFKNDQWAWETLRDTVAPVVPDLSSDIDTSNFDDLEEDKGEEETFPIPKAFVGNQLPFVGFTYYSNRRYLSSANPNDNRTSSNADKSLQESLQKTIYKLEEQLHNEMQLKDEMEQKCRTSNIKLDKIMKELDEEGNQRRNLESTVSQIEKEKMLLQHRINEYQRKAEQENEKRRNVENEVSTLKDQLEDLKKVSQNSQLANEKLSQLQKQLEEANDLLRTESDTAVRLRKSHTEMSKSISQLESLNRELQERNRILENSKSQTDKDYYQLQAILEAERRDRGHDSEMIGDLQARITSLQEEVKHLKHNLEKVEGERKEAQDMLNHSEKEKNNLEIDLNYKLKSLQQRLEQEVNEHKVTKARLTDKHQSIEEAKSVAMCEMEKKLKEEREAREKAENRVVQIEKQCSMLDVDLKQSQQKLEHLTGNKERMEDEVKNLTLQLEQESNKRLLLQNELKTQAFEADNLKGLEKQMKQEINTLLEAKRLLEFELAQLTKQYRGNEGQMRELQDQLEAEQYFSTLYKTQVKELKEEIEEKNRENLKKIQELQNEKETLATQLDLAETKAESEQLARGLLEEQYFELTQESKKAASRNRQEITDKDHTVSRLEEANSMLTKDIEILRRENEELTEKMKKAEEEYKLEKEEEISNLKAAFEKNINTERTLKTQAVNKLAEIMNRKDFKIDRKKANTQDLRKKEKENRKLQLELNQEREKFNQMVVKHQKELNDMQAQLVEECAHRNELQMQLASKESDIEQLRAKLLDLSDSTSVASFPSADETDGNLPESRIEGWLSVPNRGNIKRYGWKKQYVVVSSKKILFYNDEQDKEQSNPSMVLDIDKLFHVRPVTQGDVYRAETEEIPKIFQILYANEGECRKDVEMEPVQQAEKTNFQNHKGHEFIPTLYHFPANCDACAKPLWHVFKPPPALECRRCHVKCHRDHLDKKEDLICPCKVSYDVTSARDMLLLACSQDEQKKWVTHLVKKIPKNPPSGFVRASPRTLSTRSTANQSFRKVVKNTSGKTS
T10 sequence (P04629 33-796): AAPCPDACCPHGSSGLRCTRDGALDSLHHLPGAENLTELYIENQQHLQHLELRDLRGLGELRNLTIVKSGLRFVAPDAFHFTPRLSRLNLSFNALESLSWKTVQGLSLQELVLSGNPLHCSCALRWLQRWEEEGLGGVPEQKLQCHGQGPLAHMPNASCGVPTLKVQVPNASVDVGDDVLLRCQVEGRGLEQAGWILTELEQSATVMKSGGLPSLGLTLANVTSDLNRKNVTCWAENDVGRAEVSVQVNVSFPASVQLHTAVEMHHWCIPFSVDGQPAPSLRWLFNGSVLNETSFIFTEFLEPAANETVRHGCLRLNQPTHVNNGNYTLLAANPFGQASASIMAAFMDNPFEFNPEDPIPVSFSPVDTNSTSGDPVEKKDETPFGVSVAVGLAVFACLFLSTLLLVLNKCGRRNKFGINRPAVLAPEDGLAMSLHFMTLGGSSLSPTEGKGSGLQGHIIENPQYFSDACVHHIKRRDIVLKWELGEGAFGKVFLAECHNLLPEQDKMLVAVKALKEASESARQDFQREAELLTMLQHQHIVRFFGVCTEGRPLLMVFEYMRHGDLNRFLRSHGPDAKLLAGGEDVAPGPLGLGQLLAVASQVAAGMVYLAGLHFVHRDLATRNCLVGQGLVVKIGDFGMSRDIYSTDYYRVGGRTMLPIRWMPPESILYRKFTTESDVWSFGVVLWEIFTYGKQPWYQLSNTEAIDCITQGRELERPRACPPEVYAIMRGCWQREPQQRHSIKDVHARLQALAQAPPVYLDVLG
T22 sequence (P23443 whole entry): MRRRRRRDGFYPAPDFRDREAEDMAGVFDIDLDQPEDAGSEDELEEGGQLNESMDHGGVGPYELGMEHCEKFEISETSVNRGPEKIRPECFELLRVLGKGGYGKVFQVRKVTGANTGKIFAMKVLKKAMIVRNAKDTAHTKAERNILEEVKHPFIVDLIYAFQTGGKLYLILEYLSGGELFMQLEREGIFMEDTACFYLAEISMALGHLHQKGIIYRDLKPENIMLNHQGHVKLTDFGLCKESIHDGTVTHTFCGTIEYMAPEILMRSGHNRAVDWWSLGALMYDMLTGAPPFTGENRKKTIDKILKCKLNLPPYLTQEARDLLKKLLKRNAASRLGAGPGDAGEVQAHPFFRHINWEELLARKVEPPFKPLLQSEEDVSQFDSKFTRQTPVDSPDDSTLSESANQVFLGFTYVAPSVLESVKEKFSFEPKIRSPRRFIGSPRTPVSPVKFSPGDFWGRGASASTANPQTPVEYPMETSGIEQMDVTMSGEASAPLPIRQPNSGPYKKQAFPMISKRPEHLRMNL

Which activity at 10 µM (c-Src) does the source give for Cc1cc(O)cc(-c2nn(CC#N)cc2-c2cc(NC[C@H](C)O)nc(-c3cccnc3)n2)c1 [Example 10, [4-[6-(2(S)-hydroxypropylamino)-2-pyridin-3-yl-pyrimidin-4-yl]-3-(3-hydroxy-5-methylphenyl)-pyrazol-1-yl]acetonitrile] here?
Its activity at 10 µM is 83.8%.

What about the inhibition at 10 µM (FGR) of the same molecule?
The inhibition at 10 µM was 3.34%.

And the activity at 10 µM (FGR; [1])?
Its activity at 10 µM is 96.7%.

What about the inhibition at 10 µM (Aurora A) of the same molecule?
Its inhibition at 10 µM is 21.8%.

And the activity at 10 µM (Aurora A; [1])?
The activity at 10 µM was 78.2%.

And the inhibition at 10 µM (PLK1)?
Its inhibition at 10 µM is 5.85%.

What about the activity at 10 µM (PLK1; [1]) of the same molecule?
The activity at 10 µM was 94.2%.

What about the inhibition at 10 µM (FGFR1) of the same molecule?
The inhibition at 10 µM was -8.05%.

And the activity at 10 µM (FGFR1; [1])?
Its activity at 10 µM is 108%.

What about the inhibition at 10 µM (PIM1) of the same molecule?
The inhibition at 10 µM was 5.91%.

What about the activity at 10 µM (PIM1; [1]) of the same molecule?
Its activity at 10 µM is 94.1%.

What about the inhibition at 10 µM (CHK1) of the same molecule?
The inhibition at 10 µM was 2.36%.

What about the activity at 10 µM (CHK1; [1]) of the same molecule?
The activity at 10 µM was 97.6%.

And the inhibition at 10 µM (Ros/Ros1)?
Its inhibition at 10 µM is 93.9%.

And the activity at 10 µM (Ros/Ros1; [1])?
Its activity at 10 µM is 6.08%.

And the inhibition at 10 µM (P38a/MAPK14)?
The inhibition at 10 µM was 5.27%.

What about the activity at 10 µM (P38a/MAPK14; [1]) of the same molecule?
Its activity at 10 µM is 94.7%.

What about the inhibition at 10 µM (TRKA/NTRK1) of the same molecule?
Its inhibition at 10 µM is -0.14%.

And the activity at 10 µM (TRKA/NTRK1; [1])?
Its activity at 10 µM is 100%.

And the inhibition at 10 µM (RocK1)?
The inhibition at 10 µM was 11.7%.

And the activity at 10 µM (RocK1; [1])?
The activity at 10 µM was 88.3%.

And the inhibition at 10 µM (KDR/VEGFR2)?
Its inhibition at 10 µM is -5.84%.

And the activity at 10 µM (KDR/VEGFR2; [1])?
The activity at 10 µM was 106%.

And the inhibition at 10 µM (IR)?
Its inhibition at 10 µM is 7.01%.

What about the activity at 10 µM (IR; [1]) of the same molecule?
The activity at 10 µM was 93%.

What about the inhibition at 10 µM (EPHA1) of the same molecule?
Its inhibition at 10 µM is 23.3%.

What about the activity at 10 µM (EPHA1; [1]) of the same molecule?
Its activity at 10 µM is 76.7%.

What about the inhibition at 10 µM (EGFR) of the same molecule?
The inhibition at 10 µM was -2.23%.

What about the activity at 10 µM (EGFR; [1]) of the same molecule?
Its activity at 10 µM is 102%.

What about the inhibition at 10 µM (CK1epsilon) of the same molecule?
The inhibition at 10 µM was 9.32%.

What about the activity at 10 µM (CK1epsilon; [1]) of the same molecule?
Its activity at 10 µM is 90.7%.

What about the inhibition at 10 µM (FAK/PTK2) of the same molecule?
Its inhibition at 10 µM is 3.43%.

What about the activity at 10 µM (FAK/PTK2; [1]) of the same molecule?
The activity at 10 µM was 96.6%.

And the inhibition at 10 µM (MUSK)?
Its inhibition at 10 µM is -0.42%.

What about the activity at 10 µM (MUSK; [1]) of the same molecule?
The activity at 10 µM was 100%.

What about the inhibition at 10 µM (DNA-PK) of the same molecule?
Its inhibition at 10 µM is 6.56%.

And the activity at 10 µM (DNA-PK; [1])?
The activity at 10 µM was 93.4%.

What about the inhibition at 10 µM (TIE2/TEK) of the same molecule?
Its inhibition at 10 µM is 8.17%.

What about the activity at 10 µM (TIE2/TEK; [1]) of the same molecule?
Its activity at 10 µM is 91.8%.

And the inhibition at 10 µM (PKCa)?
Its inhibition at 10 µM is 9.23%.

And the activity at 10 µM (PKCa; [1])?
Its activity at 10 µM is 90.8%.

And the inhibition at 10 µM (p70S6K)?
The inhibition at 10 µM was 5.79%.

What about the activity at 10 µM (p70S6K; [1]) of the same molecule?
The activity at 10 µM was 94.2%.

And the inhibition at 10 µM (CDK1/cyclinB)?
Its inhibition at 10 µM is 3.64%.

What about the activity at 10 µM (CDK1/cyclinB; [1]) of the same molecule?
Its activity at 10 µM is 96.4%.

What about the IC50 (ROS kinase) of the same molecule?
The IC50 was 199 nM.
